Patent US10307355B2, “N-aralkylcarbonyldiamine compounds and personal care compositions comprising the same” (Conopco, Inc., priority 2015, dated 2019)

Target: T1, human M3 receptor (Homo sapiens, UniProt P20309)
T1 construct: expressed in transfected cells; host or cells: CHO cells (membrane suspension)
Experiment: Muscarinic 3 receptor binding assay (3H-scopolamine displacement, CHO cell membranes)
Settings: inhibition of 3H-scopolamine binding to CHO cell suspension expressing the human M3 receptor
Protocol: The muscarinic 3 receptor binding assay was adapted from Perkin Elmer. […] Atropine (Sigma-Aldrich, St. Louis, Mo.) was used as a positive control. […] The binding reactions were terminated by filtering through the GFC plates and washing & filtering with ice-cold phosphate saline buffer (5×100 μL). Once the filters were dry, microscint scintillation cocktail (100 μL) was added to each well, allowed to sit for 20 min and the plates analyzed using a TopCount scintillation counter. […] Curve fitting of % inhibition versus concentration using Excell software allowed determination of IC50 values for test compounds.

T1 sequence (P20309 whole entry): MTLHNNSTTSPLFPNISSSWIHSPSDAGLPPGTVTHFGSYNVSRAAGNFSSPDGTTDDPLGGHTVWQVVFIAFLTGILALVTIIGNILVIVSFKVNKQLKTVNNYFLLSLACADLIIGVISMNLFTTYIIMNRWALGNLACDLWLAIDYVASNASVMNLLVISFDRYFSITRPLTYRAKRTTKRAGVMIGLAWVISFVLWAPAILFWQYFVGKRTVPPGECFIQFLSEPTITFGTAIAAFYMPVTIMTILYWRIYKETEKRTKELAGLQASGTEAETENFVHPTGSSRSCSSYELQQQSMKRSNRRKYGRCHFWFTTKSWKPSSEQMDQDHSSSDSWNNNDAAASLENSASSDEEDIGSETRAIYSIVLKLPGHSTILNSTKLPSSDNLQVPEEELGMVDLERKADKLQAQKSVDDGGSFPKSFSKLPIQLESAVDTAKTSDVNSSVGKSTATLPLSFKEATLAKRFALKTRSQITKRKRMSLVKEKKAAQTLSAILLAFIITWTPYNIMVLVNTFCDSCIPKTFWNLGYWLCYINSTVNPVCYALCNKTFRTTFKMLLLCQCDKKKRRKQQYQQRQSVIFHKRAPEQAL

IC50: 3.3 µM
SMILES: CN(C)CCN(C)C(=O)C(c1ccccc1)C1CCCC1 (stereo not shown) [Compound 3c]
